The values that follow come from PMC11582173, “Synthesis, cytotoxicity, anti-inflammatory, anti-metastatic and anti-oxidant activities of novel chalcones incorporating 2-phenoxy-N-arylacetamide and thiophene moieties: induction of apoptosis in MCF7 and HEP2 cells” (Naunyn-Schmiedeberg's Archives of Pharmacology, 2024).

“And” between values parts separate entries of the source, which are not always exact repeats. Equal values may be shown once.

One experiment deals with MCF7 cells. In words: Wound healing scratch assay, MCF7. In kind it is cell-based, human. Conditions: MCF7, 5c at its IC50, 48 h; untreated C0 518.531±12.437, C48 h 160.647±61.276. The protocol: To examine the effect of chalcone 5c on the migration properties of the MCF7 and HEP2 cells, the wound-healing scratch assay was used. […] Chalcone 5c at its IC50 reduced the ability to close the scrape wound and decreased the number of migrating MCF7 and HEP2 cells compared to the untreated cells (Fig. 4 and Table 6). The scratch gap percentage in 5c treated MCF7 was 344.684±41.224 relative to the control cells (160.647±61.276) after 48 h of treatment. The scratch gap in HEP2 treated with 5c was 567.281±112.789 compared to the untreated control HEP2 cells (211.604±79.883) after 48 h.
MCF7 and HEP2 treated and untreated cells were detached from the tissue culture plate using 0.25% Trypsin-EDTA solution. Cells pellet was prepared in a 15 mL conical tube by centrifugation. The supernatant was aspirated, and the cells were re-suspended in culture media. The appropriate number of cells was platted in a 6-well plate for 100% confluence in 24 hours. In a sterile environment (typically a biosafety hood), a 200 μL pipette tip was used to press firmly against the […] of the tissue culture plate and swiftly made a vertical wound down through the cell monolayer. Carefully, the media and cell debris were aspirated. Slowly, enough culture media was added against the good wall to cover the bottom of the well and avoid detaching additional cells. […]

Another experiment has as its system MMP9. In words: ELISA, MMP9 concentration. The format is cell-based, human. Here is the method: The concentrations of matrix metalloproteinase-2 (MMP2), matrix metalloproteinase-9 (MMP9), Bcl2, BAX, P53, Malondialdehyde (MDA), Glutathione (GSH), caspase 8, caspase 9 and IL-6 were measured quantitatively in 5c treated MCF7 and HEP2 cells using ELISA (Enzyme-Linked Immunosorbent Assay) (Table 4). Gelatinases are a collective word for MMP-2 and MMP-9, where MMP-2 is gelatinase-A and MMP-9 is gelatinase-B. Solid tumor invasion, metastasis, and angiogenesis have long been linked to gelatinases (Das et al. [2021]). […] Bcl2 is a crucial protein that targets apoptosis inhibition. It is regarded as a predictive biomarker or therapeutic target in the diagnosis of cancer due to its broad expression in a variety of cancers (Porter et al. [2009]). […] The pro-apoptotic protein BAX permeabilizes the mitochondrial outer membrane by changing from a cytosolic monomer to a hazardous oligomer triggering the apoptosis process (Fulda and Debatin [2006]). […] P53 transcription factor performs an essential tumor suppressor role by coordinating a wide range of physiological responses, including DNA repair, cell cycle arrest, cellular senescence, cell death, cell differentiation, and metabolism (Liebl and Hofmann [2021]). It was activated in MCF7 and HEP2-treated cells with values (4.28 and 3.109 ng/mL), respectively, compared to their controls (3.44 and 2.06 ng/mL). […]

`COc1ccc(NC(=O)COc2ccc(C=CC(=O)c3cccs3)cc2)cc1` [Compound 5c, N-(4-Methoxyphenyl)-2-(4-(3-oxo-3-(thiophen-2-yl)prop-1-en-1-yl)phenoxy)acetamide]: the “% Scratch gap” value in the experiment on MCF7 cells stood at 344.684±41.224%. The MMP9 concentration is 236.5 ng/mL and 236.5 ± 24.87 ng/mL in the experiment on MMP9 (5c treated HEP2 cells, untreated 564.8±41.45); 271.6 ng/mL and 271.6 ± 58.04 ng/mL with MMP9 (5c treated MCF7 cells, untreated 588.28±24.87).
